We go through one compound from patent publication US10214765B2, “Cell-permeable probes for identification and imaging of sialidases” (Academina Sinica, priority 2012, dated 2019).

Like-named read-outs stand apart in the source and are kept apart here.

The test relates to oseltamivir-sensitive (WSN^274H) and oseltamivir-resistant (WSN^274Y) H1N1 influenza viruses. In kind it is binding, H1N1 influenza virus.

For the compound `C#CCCC(=O)NC1C(O)C(F)C(F)(C(=O)O)OC1[C@H](O)[C@H](O)CO` (stereo partly drawn) [DFSA-5-yne, 5-(Pent-4-ynamido)-2,3,5-trideoxy-3-fluoro-D-erythro-β-L-manno-non-2-ulopyranosylonic fluoride], the “labeling of OS^s and OS^r H1N1 influenza viruses” value is “labeled” (in the absence of OS) and “only the OS^r virus was detectable” (in the presence of competing OS).
